Assay results published in the NIST ThermoML archive (doi:10.1021/acs.jced.6b00455).

Test: mn = molality of the nth substance listed, in mol/kg
Details: 101 kPa, Liquid, Alternating current cell with electrodes

C[N+](C)(C)CCO.O=C([O-])C(F)(F)C(F)(F)C(F)(F)C(F)(F)F [(2-hydroxyethyl)trimethylammonium perfluoropentanoate] + O
Details	electrical conductivity [S/m]
293.15 K, m1 = 0.000529	0.0033
293.15 K, m1 = 0.001164	0.0074
293.15 K, m1 = 0.001886	0.012
293.15 K, m1 = 0.002281	0.0144
293.15 K, m1 = 0.002766	0.0174
293.15 K, m1 = 0.003311	0.0207
293.15 K, m1 = 0.003805	0.0236
293.15 K, m1 = 0.004377	0.0271
293.15 K, m1 = 0.004908	0.0302
293.15 K, m1 = 0.005409	0.033
293.15 K, m1 = 0.005979	0.0364
293.15 K, m1 = 0.006697	0.0404
293.15 K, m1 = 0.007467	0.0447
293.15 K, m1 = 0.008082	0.0481
293.15 K, m1 = 0.00858	0.0508
293.15 K, m1 = 0.009905	0.058
293.15 K, m1 = 0.01142	0.066
293.15 K, m1 = 0.0124	0.0711
293.15 K, m1 = 0.01324	0.0753
293.15 K, m1 = 0.01399	0.0792
293.15 K, m1 = 0.01513	0.085
293.15 K, m1 = 0.01598	0.0891
293.15 K, m1 = 0.01695	0.0936
293.15 K, m1 = 0.01789	0.098
293.15 K, m1 = 0.01884	0.102
293.15 K, m1 = 0.01994	0.108
293.15 K, m1 = 0.02076	0.112
293.15 K, m1 = 0.02179	0.116
293.15 K, m1 = 0.02264	0.12
293.15 K, m1 = 0.02348	0.123
293.15 K, m1 = 0.0245	0.128
298.15 K, m1 = 0.00173	0.0127
298.15 K, m1 = 0.003076	0.0222
298.15 K, m1 = 0.004761	0.0337
298.15 K, m1 = 0.006222	0.0434
298.15 K, m1 = 0.007398	0.0509
298.15 K, m1 = 0.008599	0.0589
298.15 K, m1 = 0.01005	0.0687
298.15 K, m1 = 0.01198	0.0799
298.15 K, m1 = 0.01368	0.0892
298.15 K, m1 = 0.01543	0.0996
298.15 K, m1 = 0.01692	0.108
298.15 K, m1 = 0.0184	0.116
298.15 K, m1 = 0.02111	0.131
298.15 K, m1 = 0.02244	0.138
298.15 K, m1 = 0.02415	0.148
298.15 K, m1 = 0.02609	0.158
298.15 K, m1 = 0.02818	0.17
298.15 K, m1 = 0.031	0.183
298.15 K, m1 = 0.03389	0.198
298.15 K, m1 = 0.03746	0.215
298.15 K, m1 = 0.04011	0.228
298.15 K, m1 = 0.04312	0.245
303.15 K, m1 = 0.000602	0.005
303.15 K, m1 = 0.001118	0.0092
303.15 K, m1 = 0.001883	0.0153
303.15 K, m1 = 0.002669	0.0214
303.15 K, m1 = 0.002939	0.0235
303.15 K, m1 = 0.003765	0.0297
303.15 K, m1 = 0.004158	0.0325
303.15 K, m1 = 0.004947	0.0388
303.15 K, m1 = 0.005615	0.0446
303.15 K, m1 = 0.006164	0.0494
303.15 K, m1 = 0.006758	0.0518
303.15 K, m1 = 0.007514	0.0567
303.15 K, m1 = 0.008082	0.0606
303.15 K, m1 = 0.008631	0.0643
303.15 K, m1 = 0.009197	0.0673
303.15 K, m1 = 0.01012	0.0743
303.15 K, m1 = 0.01148	0.0832
303.15 K, m1 = 0.01208	0.0872
303.15 K, m1 = 0.0126	0.0906
303.15 K, m1 = 0.0131	0.0936
303.15 K, m1 = 0.01373	0.0973
303.15 K, m1 = 0.01442	0.102
303.15 K, m1 = 0.01495	0.105
303.15 K, m1 = 0.01641	0.114
303.15 K, m1 = 0.01705	0.118
303.15 K, m1 = 0.01772	0.121
303.15 K, m1 = 0.01824	0.124
303.15 K, m1 = 0.01885	0.128
303.15 K, m1 = 0.01941	0.131
303.15 K, m1 = 0.01993	0.134
303.15 K, m1 = 0.02055	0.138
303.15 K, m1 = 0.02116	0.142
303.15 K, m1 = 0.02184	0.146
303.15 K, m1 = 0.02259	0.15
303.15 K, m1 = 0.02308	0.153
303.15 K, m1 = 0.0237	0.157
303.15 K, m1 = 0.0247	0.164
303.15 K, m1 = 0.02557	0.168
308.15 K, m1 = 0.000318	0.0029
308.15 K, m1 = 0.000786	0.007
308.15 K, m1 = 0.001299	0.0115
308.15 K, m1 = 0.001909	0.0169
308.15 K, m1 = 0.002425	0.021
308.15 K, m1 = 0.002911	0.0256
308.15 K, m1 = 0.003184	0.0277
308.15 K, m1 = 0.003945	0.035
308.15 K, m1 = 0.004657	0.0404
308.15 K, m1 = 0.005206	0.0449
308.15 K, m1 = 0.005836	0.0493
308.15 K, m1 = 0.006331	0.0529
308.15 K, m1 = 0.006772	0.0563
308.15 K, m1 = 0.007443	0.0629
308.15 K, m1 = 0.008421	0.0711
308.15 K, m1 = 0.008974	0.0763
308.15 K, m1 = 0.009871	0.0832
308.15 K, m1 = 0.01044	0.0864
308.15 K, m1 = 0.01092	0.0897
308.15 K, m1 = 0.01159	0.0936
308.15 K, m1 = 0.01221	0.0982
308.15 K, m1 = 0.01248	0.101
308.15 K, m1 = 0.01314	0.104
308.15 K, m1 = 0.01361	0.108
308.15 K, m1 = 0.01442	0.114
308.15 K, m1 = 0.01492	0.119
308.15 K, m1 = 0.01568	0.125
308.15 K, m1 = 0.0164	0.13
308.15 K, m1 = 0.01694	0.134
308.15 K, m1 = 0.01787	0.14
308.15 K, m1 = 0.01861	0.145
308.15 K, m1 = 0.01941	0.151
308.15 K, m1 = 0.02104	0.162
308.15 K, m1 = 0.02193	0.168
308.15 K, m1 = 0.02283	0.173
308.15 K, m1 = 0.02369	0.178
308.15 K, m1 = 0.02427	0.182
308.15 K, m1 = 0.02502	0.188
308.15 K, m1 = 0.02563	0.192
313.15 K, m1 = 0.000187	0.0015
313.15 K, m1 = 0.000688	0.0067
313.15 K, m1 = 0.001827	0.0169
313.15 K, m1 = 0.002361	0.0217
313.15 K, m1 = 0.002859	0.0266
313.15 K, m1 = 0.003424	0.0322
313.15 K, m1 = 0.00399	0.0371
313.15 K, m1 = 0.004604	0.0421
313.15 K, m1 = 0.005344	0.0499
313.15 K, m1 = 0.005863	0.0548
313.15 K, m1 = 0.006345	0.0593
313.15 K, m1 = 0.006846	0.064
313.15 K, m1 = 0.008054	0.074
313.15 K, m1 = 0.008628	0.079
313.15 K, m1 = 0.009481	0.0864
313.15 K, m1 = 0.009912	0.0907
313.15 K, m1 = 0.01048	0.0955
313.15 K, m1 = 0.01099	0.0999
313.15 K, m1 = 0.01153	0.104
313.15 K, m1 = 0.0121	0.11
313.15 K, m1 = 0.01268	0.114
313.15 K, m1 = 0.01328	0.119
313.15 K, m1 = 0.01388	0.124
313.15 K, m1 = 0.01459	0.13
313.15 K, m1 = 0.01545	0.136
313.15 K, m1 = 0.01599	0.141
313.15 K, m1 = 0.0169	0.148
313.15 K, m1 = 0.01817	0.157
313.15 K, m1 = 0.01879	0.162
313.15 K, m1 = 0.01965	0.169
313.15 K, m1 = 0.02019	0.172
313.15 K, m1 = 0.02082	0.177
313.15 K, m1 = 0.02134	0.18
313.15 K, m1 = 0.02194	0.184
313.15 K, m1 = 0.02255	0.19
313.15 K, m1 = 0.02328	0.195
313.15 K, m1 = 0.02409	0.2
